{"source": "patent US9333240B2", "about": "“Compounds for improving nutritional status, cognition and survival” (YISSUM RESEARCH DEVELOPMENT COMPANY OF THE HEBREW …, priority 2005, dated 2016)", "key": {"[1]": {"system": "PC-12 cells", "assay": "Annexin V FACS analysis of apoptosis in PC-12 cells", "assay_type": "cell-based", "settings": "AICAR, 48 h", "method": "Cells were grown in 60-mm plates and treated with AICAR for 48 h. Apoptosis was evaluated using the Annexin V FITC Detection Kit (Oncogene Research Products, Cambridge Mass.). Briefly, both attached and floating cells were collected, washed with cold PBS, re-suspended at a density of 5×10^5/ml in 0.5 ml DMEM, stained for annexin V and analyzed by flow cytometry. The apoptotic ratio at 48 h, was also evaluated, by FACS analysis."}, "[2]": {"system": "Bcl-2, Bax, PARP", "assay": "Hippocampal apoptosis proteins by RT-PCR and immunoblotting", "assay_type": "in vivo, mice", "settings": "AICAR treatment (1-2 mM), RT-PCR and immunoblotting", "method": "Total hippocampal RNA was extracted using […] reagent according to the manufacturer's instructions and reverse transcribed. Primers specific for OBRlong were […] NO: 1) and […] NO: 6), for […] NO: 2), and […] NO: 7), for BAX […] NO: 3) and […] NO: 8) for Bcl-2 […] NO: 4) and […] NO: 9) and for actin […] NO: 5) and […] NO: 10). […] Total hippocampal Protein was extracted using […] reagent. Aliquots of the clarified lysates containing […] were denatured in Laemmli sample buffer (6% SDS 30%, glycerol, 0.02% bromophenol blue, 200 mM Tris-HCl (pH 6.8), and 250 mM-mercaptoethanol, at 95° C. for 5 min. The samples were resolved by SDS-PAGE (10% acrylamide), and blotted onto nitrocellulose membrane. Non-specific binding in a Western blot analysis was prevented by immersing the membranes in blocking buffer (5% nonfat dry milk in Tris-buffer saline-Tween 20 (TBS-T)), for 2 h at room temperature. The membranes were then exposed to the indicated antibodies diluted 1:1000 for 1 h at room temperature. AMPK, phospho-AMPK and PARP were obtained from Cell Signaling. Bax, bcl-2 and actin were from Santa Cruz Biotechnology Inc. (Santa Cruz, Calif.). The blots were rinsed in TBS-T and then incubated with horseradish peroxidase-conjugated goat anti-mouse antibodies 1:10,000 for 1 h at room temperature. Antibody-antigen complexes were visualized by detecting enhanced chemiluminescence with X-ray film."}, "[3]": {"system": "norepinephrine and dopamine in the hippocampus", "assay": "Hippocampal catecholamine measurements (HPLC-ECD)", "assay_type": "in vivo, mice", "settings": "AICAR 1-2 mM daily for 10 days", "method": "Control mice received food ad-libitum. Diet-restricted mice received a diet of 57 kCal/week/mouse (2.16 g/day/mouse) as 60% of the requirement, or 38 kCal/week/mouse (1.44 g/day/mouse) for 40%/DR. DR was carried out for 10 days. Behavioral test was performed using the eight-arm spatial maze during the second week of experiment. During the behavioral tests, half of the animals in each group were injected intraperitoneally (i.p) with AICAR (1-2 mM equal to 258-516 mg/kg) or leptin (1 mg/kg) and the other half with saline. Mice were sacrificed by decapitation after the behavioral tests and the hippocampi were frozen at -70° C. Catecholamines were measured as described previously ([…] et al (1996), Brain Res. 732, 133-144. The assays for dopamine and NE were performed by HPLC separation and detection using HPLC-ECD. Values are presented as a concentration (ng/mg tissue)."}, "[4]": {"system": "differentiated PC-12 cells", "assay": "Viable cell number of differentiated PC-12 cells", "assay_type": "cell-based", "settings": "AICAR 0.125 to 1.0 mM, 96 h", "method": "PC-12 cells were kindly provided by O. Meyuhas, Dept. of Biochem., Faculty of Medicine, Jerusalem. These cells were grown either in Dulbecco's modified Eagle's medium (DMEM) supplemented with 8% horse serum, 8% fetal bovine serum (FBS), glutamine, and gentamicin or with 1% horse serum, in the presence of nerve growth factor (NGF) (50 ng/ml), which causes the cells to differentiate. Murine leptin was provided by A. Gertler. AICAR was obtained from Toronto Research Chemicals (TRC). To confirm the cellular effects of AMPK in the hippocampus, in-vitro studies on PC-12 cells were also preformed."}, "[5]": {"system": "BrdU-immunoreactive cells in the dentate gyrus", "assay": "BrdU labelling of newly generated cells in the dentate gyrus of mice", "assay_type": "in vivo", "settings": "25 nM AICAR once daily for 10 days vs saline", "method": "In order to determine what is “low level activation” varying doses of the AMPK pathway activator may be administered to test animals in the final formulation intended to be used in humans, together with Brd-U. Animals are than sacrificed and the number of BrdU-immunoreactive cells in the dentate gyrus is determined in order to measure the generation rate of new cells. Amounts that are capable of increasing the number of newly generated cells are considers as “therapeutically effective amounts” when converted, according to known criteria, to physiologically corresponding amounts in humans.\nThe function of AMPK activation in the hippocampus was evaluated. […] Mice were treated with bromodeoxyuridine (BrdU) and either saline or 25 nM AICAR (low level stimulation) once daily for 10 days. […] Next, behavioral testing was performed using the eight-arm maze to determine whether there was a concomitant improvement in cognition. […] (FIG. 1C)."}, "[6]": {"system": "mice", "assay": "Eight-arm maze, mice ad libitum or diet restricted", "assay_type": "in vivo", "method": "Control mice received food ad-libitum. Diet-restricted mice received a diet of 57 kCal/week/mouse (2.16 g/day/mouse) as 60% of the requirement, or 38 kCal/week/mouse (1.44 g/day/mouse) for 40%/DR. DR was carried out for 10 days. Behavioral test was performed using the eight-arm spatial maze during the second week of experiment. […] Mice were sacrificed by decapitation after the behavioral tests and the hippocampi were frozen at −70° C. The animals were placed in an eight-arm maze, which is a scaled-down version of that developed for rats (Randt et al, (1971) Science 172, 489-499; Ziv et al (1994) Neuroscience Lett, 170, 136-140). […] The mice were tested until they made entries into all eight arms or until they completed 24 entries, whichever came first. […] Maze performance was calculated each day for five consecutive days. Results were presented as area under the curve (AUC) utilizing the formula: (day 2+day 3+day 4+day 5)−4*(day 1)."}}, "data": [{"smiles": "NC(=O)c1ncn([C@@H]2O[C@H](CO)[C@@H](O)[C@H]2O)c1N", "note": "[AICAR, 5-aminoimidazole-4-carboxamide ribonucleoside, reference compound]", "values": [{"measurement": "apoptotic cell death (Annexin V staining)", "setting": "[1]", "result": "induces apoptotic cell death in a dose-dependent manner"}, {"measurement": "Bax level", "setting": "[2]", "result": "up-regulation"}, {"measurement": "bcl-2 level", "setting": "[2]", "result": "reducing"}, {"measurement": "dopamine concentrations", "setting": "[3]; p<0.05", "result": "elevating"}, {"measurement": "norepinephrine (NE) concentrations", "setting": "[3]; p<0.05, 0.01 for the two dosages", "result": "decreased"}, {"measurement": "number of viable cells", "setting": "[4]", "result": "dose-dependent reduction in the number of viable cells, reaching almost total after 96 h"}, {"measurement": "number of BrdU-immunoreactive cells in the dentate gyrus (generation rate of new cells)", "setting": "[5]", "result": "significantly increased"}, {"measurement": "eight-arm maze performance", "setting": "[6]; 25 nM AICAR (low level stimulation) vs controls", "result": "performed significantly better than the controls"}, {"measurement": "eight-arm maze performance", "setting": "[6]; high dose AICAR (1-2 mM) vs ad libitum group, similar to DR to 40%", "result": "significant deterioration in maze performance"}]}]}
